Earlier results on 4 compounds are cited in US8940311B2, “In situ controlled release drug delivery system” (priority 2004, dated 2015).

Data set [1] has as its target plasma cholinesterase (Homo sapiens, UniProt P06276). Particulars: hydrolysis by plasma cholinesterase.
For data set [2], the system named is liver microsomal enzymes.

Sequence of plasma cholinesterase (P06276 29-602): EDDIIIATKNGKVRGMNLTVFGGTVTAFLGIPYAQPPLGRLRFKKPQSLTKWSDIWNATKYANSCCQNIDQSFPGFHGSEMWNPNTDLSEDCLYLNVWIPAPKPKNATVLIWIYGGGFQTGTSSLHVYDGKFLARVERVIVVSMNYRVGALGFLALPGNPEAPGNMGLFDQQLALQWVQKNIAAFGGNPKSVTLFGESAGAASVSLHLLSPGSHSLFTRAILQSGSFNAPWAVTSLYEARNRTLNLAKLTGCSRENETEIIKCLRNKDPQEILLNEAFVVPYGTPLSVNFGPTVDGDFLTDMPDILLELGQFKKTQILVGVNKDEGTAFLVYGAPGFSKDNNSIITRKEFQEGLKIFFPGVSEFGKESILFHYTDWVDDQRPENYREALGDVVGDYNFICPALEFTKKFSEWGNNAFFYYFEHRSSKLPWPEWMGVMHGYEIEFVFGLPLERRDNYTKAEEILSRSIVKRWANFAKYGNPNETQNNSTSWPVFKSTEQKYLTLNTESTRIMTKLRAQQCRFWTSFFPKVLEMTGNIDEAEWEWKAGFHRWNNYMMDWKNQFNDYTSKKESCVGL

For the compound `CCN(CC)CCOC(=O)c1ccc(N)cc1Cl` [chloroprocaine], the half-life entry in data set [1] is “less than one”.

As for `CCCN(CC)C(CC)C(=O)Nc1c(C)cccc1C` (stereo not shown) [etidocaine], in data set [2], the “order of rate of amide hydrolysis” value is “fastest”.

Take `CCN(CC)CCOC(=O)c1ccc(N)cc1` [procaine]: the half-life entry in data set [1] is “less than one”.

In the case of `CCCCN1CCCCC1C(=O)Nc1c(C)cccc1C` (stereo not shown) [bupivacaine], the “order of rate of amide hydrolysis” value in data set [2] is on record as “slowest”.
